Results: patent US11173195B2, “Immunomodulatory pharmaceutical compositions including a synthetic peptide and transforming growth factor beta” (Enzo Biochem, Inc., priority 2013, dated 2021)
Like-named read-outs stand apart in the source and are kept apart here.

How the values were obtained:
[1] = system: peripheral blood mononuclear cells (PBMCs) from AMD patients; details: for immunostimulatory activity on PBMCs: peptide 20 μg/ml
Method: (§1) Accordingly, peripheral blood mononuclear cells of AMD patients were tested to determine whether they would manifest the same type of responses to various synthetic peptides as blood cells from uveitis patients did in an earlier study. See deSmet et al. (2001) Investigative Ophthalmology & Visual Science 42(13):3233-38.
(§2) The cell preparation and assay procedures used in these experiments were essentially as described in DeSmet et al. 2001. In brief, mononuclear lymphocytes were separated on isolymph gradient (Gallard-Schlesinger, Carle Place, N.Y.) from heparinized blood shortly after the sample was obtained. Cells were resuspended in RMPI 1640 with HEPES (Gibco, Grand Island, N.Y.), supplemented with glutamine (2 mM), Penicillin (100 U/ml), streptomycin (100 μg/ml), and 10% commercial heat-inactivated human AB serum (Biocell Laboratories, Carson, Calif.). These cells were immediately placed in culture at a density of 5×10^5 cells/well in the presence of a test peptide at a concentration of 20 μg/ml (or no peptide control), in flat-bottomed, 96-well plates (Costar, Cambridge, Mass.). All assays were plated in triplicate. Peptides were tested simultaneously. For control of immune reactivity, purified protein derivative (PPD; Parke-Davis, Morris Plains, N.J.) and purified phytohemagglutinin (PHA; Murex Diagnostics, Dartford, UK) were also tested. For the last 12 hours before harvesting at day 5, each well was pulsed with [3H]thymidine (2 Ci/mmol, 0.5 μCi per 10 μl/well; New England Nuclear, Boston, Mass.).

[2] = system: blood cells from uveitis patients; details: previously found (Wildner and Thurau 1994; Thurau et al. 1997); cited from earlier work
[3] = system: PBMCs from control subjects without AMD
Method: as §1, §2

[4] = AMD patients with large drusen (late stage)
[5] = patients with wet AMD (advanced AMD with CNV), day 5
[6] = early stage AMD patients with small drusen

Row | Substance | immunostimulatory activity on PBMCs [1, 4] | immunostimulatory activity on PBMCs [1, 5] | immunostimulatory in uveitis patients [2] | immunostimulatory activity on PBMCs [1, 6] | other results
1 | ALNED LSSWT AADT [Peptide B27PD, reference compound] | varying levels of responses | elicit immunoreactive responses | immunostimulatory | – | –
2 | DTNLA SSTII KEGID [Peptide 31] | higher average reactivity than Peptide 23 | – | – | most reactive | –
3 | FLGEL TSSEV ATEV [PDS-Ag, reference compound] | varying levels of responses | elicit immunoreactive responses | immunostimulatory | – | –
4 | GEPIPVTVDVTNNTEKTVKK | – | – | – | – | response from responder T-cells ([3]; healthy individuals): does not elicit a response; response from responder T-cells ([1]; AMD patients, FIG. 1): elicits a response
5 | LPLLA NNRER RGIAL [Peptide 29] | higher average reactivity than Peptide 23 | – | – | most reactive | –
6 | VTVDVTNNTEKTVKK [Peptide 23] | – | – | – | – | immunostimulatory activity on PBMCs ([3]; control subjects without AMD, peptide 20 μg/ml): little if any stimulation; frequency of induced immunostimulatory response ([1]; AMD patients with large drusen, FIG. 3, comparison of the three agents): more frequently induced an immunostimulatory response than PDS-Ag or B27PD
